The subject of one data set is obese female Zucker rats. Put plainly: Oral daily treatment of chow fed obese female Zucker rats for fourteen days: serum lipids, glycemic control indicators, body weight. The format is in vivo, rat. Conditions: oral gavage, 14 days; for % wt. gain: obese female Zucker rats; for Glucose, Percent of Pre-treatment: blood glucose after 6 hour fast; for HDL-C, Percent of Pre-treatment / Insulin, Percent of Pre-treatment / Non-HDL-C, Percent of Pre-treatment: serum; for BHA, Percent of Pre-treatment: serum beta-hydroxy butyric acid; for NEFA, Percent of Pre-treatment: serum non-esterified fatty acids; for HDL-C/non-HDL-C: serum ratio; for TC, Percent of Pre-treatment: serum total cholesterol; for TG, Percent of Pre-treatment: serum triglycerides. How it is done:
In a number of different experiments, illustrative compounds of the invention are administered daily at a dose of up to 100 mg/kg to chow fed obese female Zucker rats for fourteen days in the morning by oral gavage in 1.5% carboxymethylcellulose/0.2% Tween 20 or 20% ethanol/80% polyethylene glycol (dosing vehicles). Animals are weighed daily. Animals are allowed free access to rodent chow and water throughout the study except on days of blood sampling where food is restricted for six hours prior to blood sampling. Blood glucose is determined after the 6 hour fast in the afternoon without anesthesia from a tail vein. Serum is also prepared from pretreatment blood samples subsequently obtained from the orbital venous plexus (with O2/CO2 anesthesia) and following the fourteenth dose at sacrifice from the heart following O2/CO2 anesthesia. Serums are assayed for lipoprotein cholesterol profiles, triglycerides, total cholesterol, Non-HDL cholesterol, HDL cholesterol, the ratio of HDL cholesterol to that of Non-HDL cholesterol, insulin, non-esterified fatty acids, and beta-hydroxy butyric acid. The percent body weight gain and the ratio of liver to body weight is also determined. These are shown as absolute values or as a percent change of the pretreatment values in Table 1.

The subject of a further data set is primary rat hepatocytes. Put plainly: Inhibition of lipid synthesis ([1-14C]-acetate incorporation) in primary cultures of rat hepatocytes. The format is cell-based. To be noted: Hepatocyte, 4 hour incubation with [1-14C]-acetate, 0-300 μM compound. How it is done: Compounds were tested for inhibition of lipid synthesis in primary cultures of rat hepatocytes. Male Sprague-Dawley rats were anesthetized with intraperitoneal injection of sodium pentobarbital (80 mg/kg). Rat hepatocytes were isolated essentially as described by the method of Seglen (Seglen, P. O. Hepatocyte suspensions and cultures as tools in experimental carcinogenesis. J. Toxicol. Environ. Health 1979, 5, 551–560). Hepatocytes were suspended in Dulbecco's Modified Eagles Medium containing 25 mM D-glucose, 14 mM HEPES, 5 mM L-glutamine, 5 mM leucine, 5 mM alanine, 10 mM lactate, 1 mM pyruvate, 0.2% bovine serum albumin, 17.4 mM non-essential amino acids, 20% fetal bovine serum, 100 nM insulin and 20 μg/mL gentamycin) and plated at a density of 1.5×10^5 cells/cm^2 on collagen-coated 96-well plates. Four hours after plating, media was replaced with the same media without serum. Cells were grown overnight to allow formation of monolayer cultures. Lipid synthesis incubation conditions were initially assessed to ensure the linearity of [1-^14C]-acetate incorporation into hepatocyte lipids for up to 4 hours. Hepatocyte lipid synthesis inhibitory activity was assessed during incubations in the presence of 0.25 μCi [1-^14C]-acetate/well (final radiospecific activity in assay is 1 Ci/mol) and 0, 1, 3, 10, 30, 100 or 300 μM of compounds for 4 hours. At the end of the 4-hour incubation period, medium was discarded and cells were washed twice with ice-cold phosphate buffered saline and stored frozen prior to analysis. To determine total lipid synthesis, 170 μl of MicroScint-E® and 50 μl water was added to each well to extract and partition the lipid soluble products to the upper organic phase containing the scintillant. Lipid radioactivity was assessed by scintillation spectroscopy in a Packard TopCount NXT.

What is called IC50 is the midpoint of a concentration-inhibition curve. As usually defined, the melting point is the temperature of the solid-liquid transition.

Consider `CC(C)(CCCCC(O)CCCCC1(C(=O)O)CCC1)C(=O)O` (stereo not shown) [A], for which, in the data set with obese female Zucker rats (30 mg/kg/day), the “% wt. gain” value is 12.3%; the “Glucose, Percent of Pre-treatment” value was −1%; the “HDL-C, Percent of Pre-treatment” value amounted to 76%; the “Insulin, Percent of Pre-treatment” value is on record as −8%. Further, in the data set on obese female Zucker rats (30 mg/kg/day), the “Non-HDL-C, Percent of Pre-treatment” value is given as −20%; the “BHA, Percent of Pre-treatment” value came to 150%; the “NEFA, Percent of Pre-treatment” value is recorded as −30%; the HDL-C/non-HDL-C is on record as 4. Moreover, in the data set with obese female Zucker rats (30 mg/kg/day), the “TC, Percent of Pre-treatment” value turned out to be 37% and the “TG, Percent of Pre-treatment” value is on record as −23%. Further, in the data set with primary rat hepatocytes, the IC50 is 12 µM.
Turning to `O=C(O)C1(CCCCCC(O)CCCCCC2(C(=O)O)CC2)CC1` [B], in the data set on obese female Zucker rats (100 mg/kg/day), the “% wt. gain” value was 4.2%; the “Glucose, Percent of Pre-treatment” value was −24%; the “HDL-C, Percent of Pre-treatment” value came to 54%; the “Insulin, Percent of Pre-treatment” value was −51%. Moreover, in the data set on obese female Zucker rats (100 mg/kg/day), the “Non-HDL-C, Percent of Pre-treatment” value is −94%; the “BHA, Percent of Pre-treatment” value turned out to be 254%; the “NEFA, Percent of Pre-treatment” value is reported as −23%; the HDL-C/non-HDL-C was 153. Also, in the data set on obese female Zucker rats (100 mg/kg/day), the “TC, Percent of Pre-treatment” value came to 13% and the “TG, Percent of Pre-treatment” value is recorded as −91%. Also, the IC50 in the data set with primary rat hepatocytes is 0.9 µM.
For `O=C(O)C1(CCCCCC(O)CCCCCC2(C(=O)O)CCCC2)CCCC1` [Compound 6.33, 1-[11-(1-Carboxycyclopentyl)-6-hydroxyundecyl]-1-cyclopentanecarboxylic acid], the melting point lay within 76 to 77 °C.
As for `CC(C)(CCCCC(O)CCCCC1(C(=O)O)CC1)C(=O)O` (stereo not shown) [Compound E], in the data set on obese female Zucker rats (100 mg/kg/day), the “% wt. gain” value came out at 10.4%; the “Glucose, Percent of Pre-treatment” value is recorded as −2%; the “HDL-C, Percent of Pre-treatment” value is listed as 162%; the “Insulin, Percent of Pre-treatment” value amounted to 2%. Moreover, in the data set with obese female Zucker rats (100 mg/kg/day), the “Non-HDL-C, Percent of Pre-treatment” value was determined as 1%; the “BHA, Percent of Pre-treatment” value is 223%; the “NEFA, Percent of Pre-treatment” value was −24%; the HDL-C/non-HDL-C came out at 5. In the data set on obese female Zucker rats (100 mg/kg/day), the “TC, Percent of Pre-treatment” value is 101% and the “TG, Percent of Pre-treatment” value is recorded as −34%. For the same compound, the 50% inhibitory concentration (IC50) in the data set on primary rat hepatocytes came out at 3 µM.
`CC(C)(CCCCCC(O)CCCCCC1(C(=O)O)CC1)C(=O)O` (stereo not shown) [D]: in the data set with obese female Zucker rats (100 mg/kg/day), the “% wt. gain” value is −1.7%; the “Glucose, Percent of Pre-treatment” value is reported as −13%; the “HDL-C, Percent of Pre-treatment” value was 15%; the “Insulin, Percent of Pre-treatment” value is given as −70%. Moreover, in the data set on obese female Zucker rats (100 mg/kg/day), the “Non-HDL-C, Percent of Pre-treatment” value was −98%; the “BHA, Percent of Pre-treatment” value came to 195%; the “NEFA, Percent of Pre-treatment” value is recorded as −44%; the HDL-C/non-HDL-C turned out to be 785. Besides, in the data set on obese female Zucker rats (100 mg/kg/day), the “TC, Percent of Pre-treatment” value is listed as −11% and the “TG, Percent of Pre-treatment” value is recorded as −97%. Besides, 1.4 µM corresponded to half-maximal inhibition with primary rat hepatocytes (IC50).
Turning to `O=C(O)C1(CCCCC(O)CCCCC2(C(=O)O)CC2)CC1` [F], half-maximal inhibition in the data set with primary rat hepatocytes (IC50) required 1.8 µM.

For the origin of these results see patent publication US7119221B2, “Cycloalkyl-hydroxyl compounds and compositions for cholesterol management and related uses” (Esperion Therapeutics, Inc., priority 2003, dated 2006).
